Patent US20260345609A1, “METHODS FOR PROMOTING PERSISTENCE OF CELL THERAPY” (Legend Biotech Ireland Limited, priority 2022, published 2026)

Assays:
LUCAR-20SD cells = assay: In vitro mixed lymphoid (MLR) model with LUCAR-20SD cells, UnT and Raji cells: graft LUCAR-20SD cells; type: cell-based, human; conditions: 0.05 μM, 1 μM, 2 μM MTX
Protocol: To evaluate the ability of LUCAR-20SD cells to tolerate allogeneic T cell rejection, an in vitro mixed lymphoid (MLR) model was established.
Using the T cells from a random healthy donor (B donor), LUCAR-20SD cells were prepared following the method in Example 1, as the graft cells. Un-transduced T cells (UnT) from another random healthy donor (Adonor) were also prepared, as the host cells.
The cell density of CD20 positive cells (lymphoma cell lines Raji, ATCC, CCL-86) was adjusted to 1×10^6 cells/mL. Raji cells were treated with 20 μg/mL mitomycin at 37° C. for 3 h, washed three times with 10 mL DPBS, and were resuspended in the culture medium. 20×10^6 untransduced T cells (UnT, T cell donor A), 1×10^6 LUCAR-20SD cells (T cell donor B), and 5×10^6 treated lymphoma cells Raji were mixed and cultured in the medium. The cell mixture was divided into 4 groups, and 0 μM MTX, 0.05 μM MTX, 1 μM MTX, or 2 μM MTX was added, respectively. […] According to the formula: fold change of cell number (UnT)=[cell number counted by AOPI×(CAR-CD5+%)]/20, fold change of cell number (LUCAR-20SD cells)=[cell number counted by AOPI×(CAR+CD5+%)]/1, the cell proliferation curves of UnT and LUCAR-20SD cells were plotted.

[1] = system: host PBMC cells (HLA-A2+); assay: Effect of combination of fludarabine, cyclophosphamide and MTX on host immune cells (HLA-A2+) in peripheral blood; type: in vivo, NCG mice; human host cells; conditions: day 13
Source text: pLVX-Puro vector purchased from Clontech was subjected to the digestion reaction of ClaI and EcoRI restriction enzymes. The CMV promoter was replaced with the human EF1α promoter (GenBank: J04617.1) to obtain the pLVX-hEF1α vector. The fusion gene sequence of SIV Nef_M116-P2A-DHFR L22F/F31S-IRES-CD8α SP-anti-BCMA antibody-CD8α Hinge-CD8αTM-4-1BB-ITAM010, hereinafter referred to as “LUCAR-BCMA” (SEQ ID NO: 6) was cloned into the expression plasmid pLVX-hEF1α to form the LUCAR-BCMA expression plasmid named as M1588. The anti-BCMA antibody contained herein has been disclosed in PCT/CN2020/136570. With reference to the virus vector production and primary T transduction in Example 1, LUCAR-BCMA cells were prepared.
Severely immunodeficient NCG mice were used for in vivo efficacy evaluation. The specific embodiment is as follows: at day-5.5 mice were intravenously inoculated with 20×10^6 PBMC cells (HLA-A2+) to construct host immune cells, and at day0 the mice were intravenously inoculated with 3×10^6 LUCAR-BCMA cells (HLA-A2−) as transplanted cells. The modeled mice were then treated with the following different combination of fludarabine, cyclophosphamide, and MTX to evaluate the inhibitory effect of the combination regimen on the host's immune system. “/” in Table 2 means no drug was administrated. The dose of fludarabine in each experimental group was 0.1623 mg/mice, the dose of cyclophosphamide was 1.623 mg/mice and the dose of MTX was 15.15 mg/kg (G3 and G4) or 75.45 mg/kg (G5 and G6). At day 13, the end point of the experiment, the peripheral blood white blood cells (WBC) of mice were measured. The peripheral blood cells of mice were resuspended in DPBS, and then 1 μL of FITC anti human CD45 (Biolegend, 304038) and 1 μL of PE anti human HLA-A2 (Biolegend, 343306) were added into the cell resuspension and incubated at 4° C. for 30 min. […] The proliferation of host PBMC cells in the peripheral blood of mice was evaluated, which reflected the effect of different combinations of drugs on host immunity in vivo.

SMILES: CN(Cc1cnc2nc(N)nc(N)c2n1)c1ccc(C(=O)N[C@@H](CCC(=O)O)C(=O)O)cc1 [MTX, methotrexate]
- protective effect on heterologous LUCAR-20SD cells (LUCAR-20SD cells): good protective effect on heterologous LUCAR-20SD cells
- inhibitory effect of MTX on the host immune cells, dose relation ([1]; 15.15 mg/kg (G3) vs 75.45 mg/kg (G5)): dose-dependent
- inhibitory effect on proliferation of host cells ([1]; FC regimen or MTX alone): the inhibitory effect was limited
- number of host cells in the peripheral blood compared with G1 blank group ([1]; G2: FC, G3: 15.15 mg/kg MTX, G5: 75.45 mg/kg MTX): lower than that of the G1 blank group
